Assay results as given in ChEMBL document CHEMBL5465560, “Selectivity Literature for EUbOPEN Chemogenomic Library” (2024).
Blank lines part the entries; values can stand above or below the compound they belong to.

Key:
[1] = target: T1, Serine/threonine-protein kinase N2 (Homo sapiens, UniProt Q16513); assay: Selectivity interaction (Millipore kinase profiler) EUB0000124b PKN2; details: at 10 µM
[2] = target: Rho-associated protein kinase 1 (Homo sapiens) (UniProt Q13464); assay: Selectivity interaction (KinomeScan (DiscoverX)) EUB0001049a ROCK1; details: at 1 µM
[3] = target: MAP kinase-activated protein kinase 2 (Homo sapiens, UniProt P49137); assay: Selectivity interaction (Ambit KINOMEscan and KiNATiv profiling in Jurkat cells) EUB0000090b MAPKAPK2; format: cell-based; details: at 1 µM
MAP kinase-activated protein kinase 2, sequence (P49137 whole entry, looked up): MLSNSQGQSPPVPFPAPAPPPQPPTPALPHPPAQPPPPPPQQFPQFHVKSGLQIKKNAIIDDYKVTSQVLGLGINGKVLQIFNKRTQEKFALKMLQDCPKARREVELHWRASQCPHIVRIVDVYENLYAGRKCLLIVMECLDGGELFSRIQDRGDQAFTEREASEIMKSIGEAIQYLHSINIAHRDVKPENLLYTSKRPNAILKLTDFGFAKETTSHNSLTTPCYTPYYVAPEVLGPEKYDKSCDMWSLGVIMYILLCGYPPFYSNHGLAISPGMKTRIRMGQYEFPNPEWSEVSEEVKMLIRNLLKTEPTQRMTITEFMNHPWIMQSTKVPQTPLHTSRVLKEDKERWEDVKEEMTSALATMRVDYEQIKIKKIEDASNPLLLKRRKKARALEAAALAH

[4] = target: 5'-AMP-activated protein kinase catalytic subunit alpha-2 (Homo sapiens) (UniProt P54646); assay: Selectivity interaction (ActivX KiNativ screen (kinase selectivity in THP-1 cell lysates)) EUB0000639a PRKAA2; format: subcellular; details: lysate, at 0.2 µM
5'-AMP-activated protein kinase catalytic subunit alpha-2 (Homo sapiens), sequence (P54646 whole entry, looked up): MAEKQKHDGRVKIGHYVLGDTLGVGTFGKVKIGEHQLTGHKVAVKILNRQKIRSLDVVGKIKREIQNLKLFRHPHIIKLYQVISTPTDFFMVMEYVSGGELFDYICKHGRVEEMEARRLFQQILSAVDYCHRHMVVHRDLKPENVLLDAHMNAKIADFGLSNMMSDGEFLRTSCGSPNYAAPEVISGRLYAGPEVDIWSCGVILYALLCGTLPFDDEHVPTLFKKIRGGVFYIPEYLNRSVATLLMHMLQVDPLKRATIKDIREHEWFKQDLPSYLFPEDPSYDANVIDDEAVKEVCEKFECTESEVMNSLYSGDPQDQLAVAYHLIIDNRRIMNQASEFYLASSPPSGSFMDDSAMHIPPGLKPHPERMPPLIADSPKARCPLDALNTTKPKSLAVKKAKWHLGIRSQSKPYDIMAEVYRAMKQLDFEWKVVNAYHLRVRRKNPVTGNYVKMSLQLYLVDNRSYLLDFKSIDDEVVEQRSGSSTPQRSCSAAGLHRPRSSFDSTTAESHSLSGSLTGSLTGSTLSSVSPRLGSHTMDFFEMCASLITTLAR

[5] = target: T2, Dual specificity mitogen-activated protein kinase kinase 6 (Homo sapiens) (UniProt P52564); assay: Selectivity interaction (Kinase panel (Invitrogen)) EUB0000639a MAP2K6; details: at 200 nM
T2 sequence (whole entry): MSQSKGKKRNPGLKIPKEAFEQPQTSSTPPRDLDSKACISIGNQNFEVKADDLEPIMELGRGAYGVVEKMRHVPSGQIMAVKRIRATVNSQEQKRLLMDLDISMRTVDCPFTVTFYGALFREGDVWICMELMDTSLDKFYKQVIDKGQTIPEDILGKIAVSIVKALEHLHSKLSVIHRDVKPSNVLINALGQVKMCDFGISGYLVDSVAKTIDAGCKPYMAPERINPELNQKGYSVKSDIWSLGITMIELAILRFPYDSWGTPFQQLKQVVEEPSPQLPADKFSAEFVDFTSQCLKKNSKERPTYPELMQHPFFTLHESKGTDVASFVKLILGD

[6] = target: Vascular endothelial growth factor receptor 3 (Homo sapiens, UniProt P35916); assay: Selectivity interaction (Kinase panel (Invitrogen)) EUB0000639a FLT4; details: at 200 nM
Vascular endothelial growth factor receptor 3, sequence (P35916 whole entry): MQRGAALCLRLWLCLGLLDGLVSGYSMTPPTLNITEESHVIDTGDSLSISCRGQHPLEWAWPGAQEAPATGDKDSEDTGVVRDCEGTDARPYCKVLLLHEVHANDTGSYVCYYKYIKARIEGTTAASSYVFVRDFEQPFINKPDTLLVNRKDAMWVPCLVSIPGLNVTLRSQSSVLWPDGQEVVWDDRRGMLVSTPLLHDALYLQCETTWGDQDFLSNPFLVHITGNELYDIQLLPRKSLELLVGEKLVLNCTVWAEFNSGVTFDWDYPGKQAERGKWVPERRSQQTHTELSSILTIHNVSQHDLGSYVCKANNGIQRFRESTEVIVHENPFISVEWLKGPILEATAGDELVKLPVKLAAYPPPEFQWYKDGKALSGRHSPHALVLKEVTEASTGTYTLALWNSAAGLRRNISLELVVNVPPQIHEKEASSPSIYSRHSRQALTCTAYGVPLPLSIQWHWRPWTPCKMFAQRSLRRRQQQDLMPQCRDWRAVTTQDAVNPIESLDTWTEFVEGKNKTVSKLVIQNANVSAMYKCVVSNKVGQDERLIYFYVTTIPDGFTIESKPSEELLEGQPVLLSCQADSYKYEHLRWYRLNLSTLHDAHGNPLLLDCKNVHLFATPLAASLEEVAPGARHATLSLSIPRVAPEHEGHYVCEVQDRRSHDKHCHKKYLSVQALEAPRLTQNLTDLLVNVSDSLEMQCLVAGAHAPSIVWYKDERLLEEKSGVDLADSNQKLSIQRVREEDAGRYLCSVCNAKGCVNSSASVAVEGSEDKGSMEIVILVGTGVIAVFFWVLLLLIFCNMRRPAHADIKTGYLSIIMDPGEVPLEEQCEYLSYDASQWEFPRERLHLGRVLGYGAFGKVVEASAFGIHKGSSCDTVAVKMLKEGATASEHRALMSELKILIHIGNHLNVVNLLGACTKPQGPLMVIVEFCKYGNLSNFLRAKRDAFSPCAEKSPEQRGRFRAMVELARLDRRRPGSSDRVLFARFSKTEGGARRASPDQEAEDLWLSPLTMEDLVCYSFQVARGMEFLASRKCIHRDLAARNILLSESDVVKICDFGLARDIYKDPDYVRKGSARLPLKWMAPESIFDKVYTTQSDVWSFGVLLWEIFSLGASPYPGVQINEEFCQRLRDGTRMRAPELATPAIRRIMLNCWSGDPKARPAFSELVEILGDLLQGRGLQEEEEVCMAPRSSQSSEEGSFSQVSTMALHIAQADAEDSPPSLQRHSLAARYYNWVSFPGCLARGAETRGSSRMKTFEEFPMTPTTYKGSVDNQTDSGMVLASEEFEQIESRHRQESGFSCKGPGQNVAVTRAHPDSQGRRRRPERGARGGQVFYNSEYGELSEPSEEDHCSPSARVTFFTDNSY

[7] = target: Epidermal growth factor receptor (Homo sapiens, UniProt P00533); assay: Selectivity interaction (Kinase panel (literature)) EUB0001199aCl EGFR; details: at 1 µM
[8] = target: T1, Serine/threonine-protein kinase N2; details: at 10 µM
[9] = target: Mitogen-activated protein kinase 7 (Homo sapiens) (UniProt Q13164); assay: Selectivity interaction (KinomeScan (DiscoverX)) EUB0000092b MAPK7; details: at 10 µM
[10] = target: Proto-oncogene tyrosine-protein kinase Src (Homo sapiens, UniProt P12931); assay: Selectivity interaction (KinomeScan (DiscoverX)) EUB0000092b SRC; details: at 10 µM
Proto-oncogene tyrosine-protein kinase Src, sequence (P12931 2-536 limits assumed): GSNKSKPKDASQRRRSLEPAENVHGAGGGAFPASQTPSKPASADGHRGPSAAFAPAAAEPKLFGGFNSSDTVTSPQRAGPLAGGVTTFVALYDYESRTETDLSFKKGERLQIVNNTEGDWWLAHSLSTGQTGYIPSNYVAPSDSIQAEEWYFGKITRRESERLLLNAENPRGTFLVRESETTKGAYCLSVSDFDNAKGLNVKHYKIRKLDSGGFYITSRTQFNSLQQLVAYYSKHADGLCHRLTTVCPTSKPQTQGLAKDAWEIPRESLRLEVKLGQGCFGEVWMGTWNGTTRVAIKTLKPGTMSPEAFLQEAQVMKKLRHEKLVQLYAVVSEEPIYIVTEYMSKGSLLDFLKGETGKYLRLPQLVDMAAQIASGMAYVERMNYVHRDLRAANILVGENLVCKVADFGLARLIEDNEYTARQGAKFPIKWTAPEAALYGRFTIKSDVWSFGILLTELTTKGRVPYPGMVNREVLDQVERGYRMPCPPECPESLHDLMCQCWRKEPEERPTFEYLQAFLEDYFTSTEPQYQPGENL

[11] = target: Interferon-induced, double-stranded RNA-activated protein kinase (Homo sapiens) (UniProt P19525); assay: Selectivity interaction (KinomeScan (DiscoverX)) EUB0000092b EIF2AK2; details: at 10 µM
Interferon-induced, double-stranded RNA-activated protein kinase (Homo sapiens), sequence (P19525 whole entry): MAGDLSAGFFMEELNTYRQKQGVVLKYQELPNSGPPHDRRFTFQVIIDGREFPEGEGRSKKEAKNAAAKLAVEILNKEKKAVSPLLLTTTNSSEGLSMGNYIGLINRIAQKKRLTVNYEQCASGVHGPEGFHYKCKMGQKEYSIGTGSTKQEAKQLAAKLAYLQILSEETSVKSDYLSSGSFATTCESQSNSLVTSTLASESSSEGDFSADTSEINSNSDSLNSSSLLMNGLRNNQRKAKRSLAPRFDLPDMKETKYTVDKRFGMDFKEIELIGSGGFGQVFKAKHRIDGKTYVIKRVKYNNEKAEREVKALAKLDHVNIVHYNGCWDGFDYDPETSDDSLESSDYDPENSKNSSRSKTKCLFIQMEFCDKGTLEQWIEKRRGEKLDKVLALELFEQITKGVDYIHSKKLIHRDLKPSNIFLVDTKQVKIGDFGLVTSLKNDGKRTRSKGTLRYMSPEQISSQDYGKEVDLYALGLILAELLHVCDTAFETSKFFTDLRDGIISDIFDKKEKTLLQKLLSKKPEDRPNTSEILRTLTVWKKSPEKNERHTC

[12] = target: T3, Membrane-associated tyrosine- and threonine-specific cdc2-inhibitory kinase (Homo sapiens) (UniProt Q99640); assay: Selectivity interaction (KinomeScan (DiscoverX)) EUB0000092b PKMYT1; details: at 10 µM
T3 sequence (whole entry): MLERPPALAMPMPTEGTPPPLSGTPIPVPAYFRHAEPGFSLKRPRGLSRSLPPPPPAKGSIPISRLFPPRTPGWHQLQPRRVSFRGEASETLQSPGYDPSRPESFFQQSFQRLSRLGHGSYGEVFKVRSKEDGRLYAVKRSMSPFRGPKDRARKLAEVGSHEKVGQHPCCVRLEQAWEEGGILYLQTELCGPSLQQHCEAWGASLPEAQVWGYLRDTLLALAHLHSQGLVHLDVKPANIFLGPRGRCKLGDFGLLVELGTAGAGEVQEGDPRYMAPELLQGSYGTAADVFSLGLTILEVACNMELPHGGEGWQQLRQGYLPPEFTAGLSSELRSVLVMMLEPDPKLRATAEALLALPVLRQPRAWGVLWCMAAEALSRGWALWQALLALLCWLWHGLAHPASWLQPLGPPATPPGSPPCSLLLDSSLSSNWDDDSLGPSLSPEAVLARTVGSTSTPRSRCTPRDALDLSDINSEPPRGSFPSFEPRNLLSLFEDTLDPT

[13] = target: Eukaryotic translation initiation factor 2-alpha kinase 1 (Homo sapiens) (UniProt Q9BQI3); assay: Selectivity interaction (KinomeScan (DiscoverX)) EUB0000045b EIF2AK1
Eukaryotic translation initiation factor 2-alpha kinase 1 (Homo sapiens), sequence (Q9BQI3 whole entry): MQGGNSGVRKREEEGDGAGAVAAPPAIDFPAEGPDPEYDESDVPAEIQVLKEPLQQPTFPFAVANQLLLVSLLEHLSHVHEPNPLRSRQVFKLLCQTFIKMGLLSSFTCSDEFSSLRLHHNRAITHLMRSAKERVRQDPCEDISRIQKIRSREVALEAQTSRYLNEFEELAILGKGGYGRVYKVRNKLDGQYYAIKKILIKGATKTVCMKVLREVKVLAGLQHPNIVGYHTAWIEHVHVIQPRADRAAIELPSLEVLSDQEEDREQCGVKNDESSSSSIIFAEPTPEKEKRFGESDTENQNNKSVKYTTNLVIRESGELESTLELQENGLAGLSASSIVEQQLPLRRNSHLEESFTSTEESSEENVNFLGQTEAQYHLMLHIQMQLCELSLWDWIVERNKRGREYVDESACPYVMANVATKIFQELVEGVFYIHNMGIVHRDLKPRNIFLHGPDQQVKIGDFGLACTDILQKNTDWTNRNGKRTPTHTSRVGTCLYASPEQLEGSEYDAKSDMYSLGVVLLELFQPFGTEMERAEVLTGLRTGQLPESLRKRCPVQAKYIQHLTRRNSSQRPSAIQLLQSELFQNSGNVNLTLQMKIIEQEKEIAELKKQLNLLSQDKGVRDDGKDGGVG

[14] = target: Calcium/calmodulin-dependent protein kinase kinase 1 (Homo sapiens) (UniProt Q8N5S9); assay: Selectivity interaction (KinomeScan (DiscoverX)) EUB0000655a CAMKK1; details: at 10 µM
[15] = target: Tyrosine-protein kinase HCK (Homo sapiens) (UniProt P08631); assay: Selectivity interaction (KinomeScan (DiscoverX)) EUB0001619a HCK; details: at 1 µM
[16] = target: T4, Hormonally up-regulated neu tumor-associated kinase (Homo sapiens) (UniProt P57058); assay: Selectivity interaction (KinomeScan (DiscoverX)) EUB0000618a HUNK; details: at 10 µM
T4 sequence (whole entry): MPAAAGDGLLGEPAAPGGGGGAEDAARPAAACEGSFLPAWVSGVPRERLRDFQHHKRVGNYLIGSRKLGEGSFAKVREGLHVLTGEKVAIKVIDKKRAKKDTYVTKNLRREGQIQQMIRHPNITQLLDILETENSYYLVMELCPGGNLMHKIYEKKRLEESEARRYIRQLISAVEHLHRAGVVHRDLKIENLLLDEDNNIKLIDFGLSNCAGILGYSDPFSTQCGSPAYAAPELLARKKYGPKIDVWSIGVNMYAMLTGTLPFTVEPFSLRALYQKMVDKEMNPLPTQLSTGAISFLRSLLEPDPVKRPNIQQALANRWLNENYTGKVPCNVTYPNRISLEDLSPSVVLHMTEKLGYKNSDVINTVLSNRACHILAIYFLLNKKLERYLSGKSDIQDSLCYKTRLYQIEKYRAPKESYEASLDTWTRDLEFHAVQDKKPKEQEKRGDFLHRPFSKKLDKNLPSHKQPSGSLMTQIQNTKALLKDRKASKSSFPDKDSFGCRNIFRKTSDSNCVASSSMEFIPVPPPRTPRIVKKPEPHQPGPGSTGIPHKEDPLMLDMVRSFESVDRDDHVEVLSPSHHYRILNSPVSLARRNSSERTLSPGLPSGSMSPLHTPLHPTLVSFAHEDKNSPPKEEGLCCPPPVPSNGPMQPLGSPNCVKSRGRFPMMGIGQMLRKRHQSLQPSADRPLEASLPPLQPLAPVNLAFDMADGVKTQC

[17] = target: Tyrosine-protein kinase Blk (Homo sapiens) (UniProt P51451); assay: Selectivity interaction (SelectScreen profiling (Invitrogen)) EUB0000607a BLK; details: at 2 µM
[18] = target: STE20-like serine/threonine-protein kinase (Homo sapiens, UniProt Q9H2G2); assay: Selectivity interaction (Kinase panel (KiNativ target engagement assay in Jurkat cells)) EUB0001635a SLK; format: cell-based; details: Selectivity number of off-targets 0.0, Selectivity number of targets 233.0, Source Knowledge https://www.sciencedirect.com/science/article/pii/S2451945619300674?via%3Dihub, at 1 µM

T1 sequence (Q16513 whole entry, looked up): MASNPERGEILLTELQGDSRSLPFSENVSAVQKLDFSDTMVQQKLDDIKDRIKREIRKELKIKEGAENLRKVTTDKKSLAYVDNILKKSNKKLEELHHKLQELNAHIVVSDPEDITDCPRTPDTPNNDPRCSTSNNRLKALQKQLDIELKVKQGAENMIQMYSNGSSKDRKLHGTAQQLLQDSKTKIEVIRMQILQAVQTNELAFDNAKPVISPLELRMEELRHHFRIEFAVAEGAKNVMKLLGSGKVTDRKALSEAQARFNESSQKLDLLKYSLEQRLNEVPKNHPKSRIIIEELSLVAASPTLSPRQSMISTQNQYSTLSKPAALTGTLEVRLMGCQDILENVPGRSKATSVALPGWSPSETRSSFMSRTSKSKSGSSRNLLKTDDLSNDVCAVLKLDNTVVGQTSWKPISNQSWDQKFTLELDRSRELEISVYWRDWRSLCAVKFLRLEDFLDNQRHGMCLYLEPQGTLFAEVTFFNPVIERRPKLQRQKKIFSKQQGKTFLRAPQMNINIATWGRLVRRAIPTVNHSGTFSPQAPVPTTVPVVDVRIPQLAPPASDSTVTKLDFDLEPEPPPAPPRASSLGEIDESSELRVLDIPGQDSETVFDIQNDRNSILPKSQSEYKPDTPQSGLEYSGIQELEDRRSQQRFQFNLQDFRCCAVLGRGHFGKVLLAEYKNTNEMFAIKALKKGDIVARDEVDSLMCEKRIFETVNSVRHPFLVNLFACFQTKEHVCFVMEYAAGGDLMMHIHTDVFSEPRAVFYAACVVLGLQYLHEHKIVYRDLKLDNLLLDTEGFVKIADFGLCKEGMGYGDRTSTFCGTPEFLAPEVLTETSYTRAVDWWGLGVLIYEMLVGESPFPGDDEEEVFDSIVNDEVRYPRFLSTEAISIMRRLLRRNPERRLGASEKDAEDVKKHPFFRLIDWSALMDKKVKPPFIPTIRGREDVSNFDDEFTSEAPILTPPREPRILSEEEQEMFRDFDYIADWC

- % of control [1]: 98%
Compound: CC(=O)Nc1cccc(-n2c(=O)n(C3CC3)c(=O)c3c(Nc4ccc(I)cc4F)n(C)c(=O)c(C)c32)c1

Compound: COc1cc(Nc2nc(C)cc(-c3cnn4nc(OC)ccc34)n2)cc(C(F)(F)F)c1
- % of control [2]: 99%

Compound: CN(C)C/C=C/C(=O)Nc1ccc(C(=O)N2CCCC(Nc3ncc(Cl)c(-c4c[nH]c5ccccc45)n3)C2)cc1 (centres undefined)
- % of control [3]: 97%

- % of inhibition [4]: -4.3%
- % of inhibition [5]: 4.3%
- % of inhibition [6]: 0.591%
Compound: CC[C@@H]1[C@H](F)C(=O)N[C@@H]1COc1nccc2cc(C(N)=O)c(OC)cc12 [ZIMLOVISERTIB]

- % of inhibition [7]: 8%
Compound: CN1Cc2nccc(-c3cn(C)nc3-c3ccc(F)cc3)c2C1=O

- % of control [8]: 100%
Compound: CCN(CC)CCCCNc1ncc2cc(-c3cc(OC)cc(OC)c3)c(NC(=O)NC(C)(C)C)nc2n1

Compound: CCC(=O)N1CCN(c2ccc(-n3c(=O)ccc4cnc5ccc(-c6cnc7ccccc7c6)cc5c43)cc2C(F)(F)F)CC1
- % of control [9]: 100%
- % of control [10]: 95%
- % of control [11]: 88%
- % of control [12]: 52%

Compound: C=CC(=O)Nc1cc(-n2c(=O)ccc3cnc4ccc(-c5ccc(NS(C)(=O)=O)cc5)cc4c32)ccc1C
- % of control ([13]; at 1 µM): 100%
- % of control ([13]; at 10 µM): 100%

Compound: CN(C)CCOc1ccc(-c2nc(-c3ccncc3)c(-c3ccc4c(c3)CC/C4=N\O)[nH]2)cc1
- % of control [14]: 99%

Compound: N#Cc1cccc(-c2c[nH]c3ncnc(N4CCOCC4)c23)c1
- % of control [15]: 100%

Compound: O[C@H]1CC[C@H](Nc2ncc3nc(Nc4c(F)cc(F)cc4F)n([C@H]4CCOC4)c3n2)CC1
- % of control [16]: 89%

Compound: CNC(=O)Nc1ccc(-c2nc(N3CC4CCC(C3)O4)c3cnn(C4CCC5(CC4)OCCO5)c3n2)cc1
- % of inhibition [17]: 1%

Compound: C=CC(=O)Nc1ccc(C(=O)Nc2[nH]nc3c2CN(C(=O)N[C@H](CN(C)C)c2ccccc2)C3(C)C)cc1
- % of engagement [18]: -7.6%
